Like-named read-outs stand apart in the source and are kept apart here. Blank lines part the entries; values can stand above or below the molecule they belong to.
What was measured:
[1] = tested on: Cyp4a 14−/− hypertensive mice; conditions: Cyp4a14−/− hypertensive mice; cited from earlier work
[2] = cited from earlier work
Cyp4a14−/− mice = conditions: cited from earlier work
[3] = tested on: diet-induced obesity (DIO) mouse model; assay: Experiment 1: compound 1, weight loss and blood glucose lowering in DIO mouse model; type: in vivo, Male C57BL/6J mice
Description: Experiment 1 was to investigate the effects of compound 1 on weight loss and blood glucose lowering in a diet-induced obesity (DIO) mouse model. Male C57BL/6J mice were purchased from Zhuhai BST Biotechnology Co., Ltd. and housed in a barrier system animal facility. The animals were randomly divided into 3 groups: normal control group, DIO model control group, and DIO model compound 1 treatment group, with 6 animals per group. The treatment group received compound 1 orally at a dose of 100 mg/kg on the first day of high-fat diet (HFD) feeding, once daily for 32 consecutive days. Animal weights were measured weekly, and on day 33, they were fasted overnight but allowed access to water before an oral glucose tolerance test (OGTT).

[4] = tested on: CYP enzymes in rat liver microsomes (RLM); assay: Inhibition of 20-HETE production in rat liver microsomes (RLM); type: biochemical
How it was run: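 Test compounds were dissolved in DMSO, diluted in acetonitrile/DMSO (3:1), and 2 μl was mixed with 100 μl potassium phosphate buffer containing rat liver microsomes in a 96-well plate. Duplicate 30 μl aliquots received 15 μl of 400 μM substrate, were preheated at 37° C. for 10 minutes, then started with 15 μl of 6 mM NADPH for 25 minutes. LC-MS/MS measured 20-HETE formation.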

[5] = Pharmacokinetic (PK) experiment, oral administration in rats; type: in vivo, Male SD rats; conditions: 20 mg/kg
How it was run: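 Fasted male SD rats (180-250 g) received 20 mg/kg orally in 30% sulfobutylether-β-cyclodextrin. Tail-vein blood sampled 15 min to 24 h post-dose into K2-EDTA; plasma protein-precipitated with acetonitrile containing internal standard and analysed by LC-MS/MS.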

[6] = target: recombinant CYP4F2 (rCYP4F2) (Homo sapiens (Human), UniProt P78329); assay: Inhibition of 20-HETE production by recombinant CYP4F2; type: biochemical
Sequence of recombinant CYP4F2 (rCYP4F2) (P78329 5-520): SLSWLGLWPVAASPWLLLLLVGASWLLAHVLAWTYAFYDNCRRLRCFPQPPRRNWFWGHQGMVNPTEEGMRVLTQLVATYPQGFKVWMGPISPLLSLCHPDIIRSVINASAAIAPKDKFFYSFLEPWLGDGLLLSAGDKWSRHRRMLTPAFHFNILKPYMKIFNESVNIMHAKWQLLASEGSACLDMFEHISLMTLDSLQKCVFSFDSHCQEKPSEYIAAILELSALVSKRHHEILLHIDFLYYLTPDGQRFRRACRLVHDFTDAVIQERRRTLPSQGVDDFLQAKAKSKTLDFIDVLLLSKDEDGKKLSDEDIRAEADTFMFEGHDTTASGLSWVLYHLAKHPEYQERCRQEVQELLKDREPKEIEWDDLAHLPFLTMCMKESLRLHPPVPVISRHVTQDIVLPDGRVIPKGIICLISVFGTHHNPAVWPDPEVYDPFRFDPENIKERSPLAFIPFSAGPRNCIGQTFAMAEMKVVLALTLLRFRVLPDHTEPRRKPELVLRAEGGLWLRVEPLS
Description: (§1) Experimental principle: The inhibitory activity of 20-HETE production is evaluated by testing the inhibitory effects of the compound on human liver microsomes (HLM), rat liver microsomes (RLM), mouse liver microsomes (MLM), or […] CYP4 subtype enzymes (CYP4F2). This assay employs HLM, RLM, or MLM along with recombinant CYP4F2 (rCYP4F2) and recombinant CYP4A11 (rCYP4A11), which are […] CYP4 subtype enzymes, to detect the effects of the test compound at different concentrations on the metabolic rate of enzyme-specific substrates, to determine the inhibitory effects of the test compound on CYP enzymes in HLM, RLM, or MLM.
(§2) Experimental methods: Dissolve the test compound in DMSO, and subsequently dilute it with an acetonitrile and DMSO mixture (3:1). Add 2 μl of varying concentrations of the test compound and 100 μl of potassium phosphate buffer containing either liver microsomes or recombinant enzymes to a 96-well plate. After mixing well, transfer 30 μl to another well (in duplicate), add 15 μl of 400 μM substrate solution, and mix well again. Preheat at 37° C. for 10 minutes, and then add 15 μl of 6 mM NADPH and incubate at 37° C. for 25 minutes. After 25 minutes, add 160 μl of acetonitrile solution (containing 0.1 μg/ml internal standard) to stop the reaction. Mix well, centrifuge at 3500 g for 15 minutes, and then analyze the supernatant using LC-MS/MS.
(§3) Plot the compound concentration on the x-axis and the inhibition rate on the y-axis to draw the curve. Use GraphPad Prism 5 software to fit the curve and calculate the IC50. The formula is Y=Bottom+(Top−Bottom)/(1+10^((Log IC50−X)×HillSlope)). X represents the logarithmic concentration of the inhibitor, and Y represents the relative enzyme activity at a given inhibitor concentration (relative to the condition without the inhibitor).
(§4) Calculate the inhibition percentages at concentrations of 1000 nM, 500 nM, or 100 nM as well as the half-maximal inhibitory concentration (IC50) of the test compound from the above experiment.

[7] = tested on: CYP enzymes in mouse liver microsomes (MLM); assay: Inhibition of 20-HETE production in mouse liver microsomes (MLM); type: biochemical
How it was run: (§5)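 Liver microsomes (human or mouse) or recombinant CYP4F2 or CYP4A11 in potassium phosphate buffer mixed with compound, then with 400 μM substrate solution (stock). After 10 min preincubation at 37 °C, reaction started with 6 mM NADPH solution (stock) and run 25 min at 37 °C. 20-HETE formation quantified by LC-MS/MS; IC50 from a four-parameter Hill fit, with percent inhibition also reported at 1000, 500 or 100 nM.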

[8] = tested on: CYP enzymes in human liver microsomes (HLM); assay: Inhibition of 20-HETE production in human liver microsomes (HLM); type: biochemical; conditions: 500 nM
How it was run: as §5

[9] = target: recombinant CYP4A11 (rCYP4A11) (Homo sapiens (Human), UniProt Q02928); assay: Inhibition of 20-HETE production by recombinant CYP4A11; type: biochemical; conditions: read-out: rCYP4A11 (% inh @ 100 nM)
Sequence of recombinant CYP4A11 (rCYP4A11) (Q02928 5-519): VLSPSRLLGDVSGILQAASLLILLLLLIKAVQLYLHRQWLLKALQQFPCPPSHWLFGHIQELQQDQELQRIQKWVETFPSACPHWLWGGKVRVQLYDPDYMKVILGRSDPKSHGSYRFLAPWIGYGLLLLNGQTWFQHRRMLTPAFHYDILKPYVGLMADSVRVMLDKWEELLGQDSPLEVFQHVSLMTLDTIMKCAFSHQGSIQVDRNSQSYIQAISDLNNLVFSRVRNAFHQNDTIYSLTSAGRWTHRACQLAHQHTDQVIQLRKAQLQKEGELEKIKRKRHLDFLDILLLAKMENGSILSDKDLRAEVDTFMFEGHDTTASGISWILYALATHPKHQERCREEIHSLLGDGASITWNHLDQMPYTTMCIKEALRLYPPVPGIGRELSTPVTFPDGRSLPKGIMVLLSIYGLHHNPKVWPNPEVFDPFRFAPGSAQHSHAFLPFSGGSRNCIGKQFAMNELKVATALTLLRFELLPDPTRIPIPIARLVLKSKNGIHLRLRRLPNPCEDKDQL
Description: as §1, §2, §3, §4

[10] = tested on: cyclooxygenase and lipoxygenase; conditions: cited from earlier work
20-HETE = conditions: read-out: inhibitory activity (inhibitor of 20-HETE); cited from earlier work
[11] = cited from earlier work; remark: listed apart in the source

SMILES: COCCOCCOCCOCCOCCOCCOC(=O)CCCC/C=C\CCCCCCC/C=C\CCCCO [Compound 20-SOLA]
- blood pressure [1]: restore blood pressure to normal
- solubility [2]: more water-soluble
- hyperglycemia and hyperinsulinemia (Cyp4a14−/− mice): improve hyperglycemia and hyperinsulinemia
- weight gain induced by a high-fat diet (Cyp4a14−/− mice): reduce the weight gain

- IC50 [4]: 224 nM
- RLM (% inh @ 500 nM) ([4]; 500 nM): 54.99%
- AUC(0-inf) ([5]; male, SD, rat, plasma): 125 µg·h/mL
- Cmax ([5]; male, SD, rat, plasma): 9980 ng/mL
- Tmax ([5]; male, SD, rat, plasma): 1.5 h
- half-life ([5]; male, SD, rat, plasma): 7.23 h
- AUC(0-t) ([5]; male, SD, rat, plasma, read-out: AUC0-24): 113 µg·h/mL
- IC50 [6]: 24 nM
- inhibition at 0.1 µM ([6]; read-out: rCYP4F2 (% inh @ 100 nM)): 59.5%
- IC50 [7]: 1220 nM
- HLM (% inh @ 500 nM) [8]: 79.83%
- inhibition at 0.1 µM [9]: 35.4%
SMILES: O=C1CCCN1CC1CCN(c2ccc(-c3cn[nH]c3)cc2)CC1 [Compound 1, 1-((1-(4-(1H-pyrazol-4-yl)phenyl)piperidin-4-yl)methyl)pyrrolidin-2-one]
- body weight ([3]; 100 mg/kg orally once daily for 32 days from first day of HFD): stabilized around the initial weight after 1 week and remained stable thereafter
- fasting blood glucose ([3]; 100 mg/kg orally once daily for 32 days, DIO mice): inhibit the increase in fasting blood glucose
- glucose metabolism (OGTT) ([3]; 100 mg/kg orally once daily for 32 days, OGTT day 33): enhance glucose metabolism
- absorption and blood exposure after oral administration (in words) [5]: well absorbed and exhibit high blood exposure

SMILES: CCCCc1ccc(N=CNO)c(C)c1 [HET0016]
- effect on the activity of cyclooxygenase and lipoxygenase [10]: no effect
- IC50 (20-HETE): 8.9 nM
- solubility [2]: poor
- half-life [11]: short
